Measurements from publication PMC7089970, “Structural insights into catalytic mechanism and product delivery of cyanobacterial acyl-acyl carrier protein reductase” (Nature Communications, 2020).
Where two headings read alike, the source gives them in different places.

Legend:
AAR-wt = molecular target: T1, AAR-wt (Synechococcus elongatus, UniProt Q54765); experiment: Isothermal titration calorimetry, stearoyl-CoA (650 uM) titrated into 30 uM AAR in 25 mM Tris-HCl pH 7.6, 1 mM TCEP, without KCl.; assay type: binding; conditions: read-out: KD value (µM), AAR (−K+)
T1 construct: gene Synpcc7942_1594; full length (341 residues), C-terminal His-tag removed by TEV protease; expressed in E. coli BL21(DE3) with chaperone plasmid pG-KJE8
Experimental: The binding affinity of AAR with ADO or stearoyl-CoA was measured by isotheral titration calorimetry (ITC) using a MicroCal Auto-ITC200 microcalorimeter (GE Healthcare Bio-sciences, Pittsburgh, PA). […] Wild type or mutants of ADO (or AAR) were placed into the sample cell (200 µL working volume) at a final concentration of 30 µM (60 µM for AAR) and was titrated with successive 2-µL injections of AAR protein with concentration of 500 µM (or ADO protein with concentration of 1 mM). Titrating AAR (500 µM) or ADO (1 mM) into the same buffer was performed as a control to determine the background correction. […] Injection of stearyol-CoA into the reaction buffer was performed as control to determine background correction.

AAR [1] = conditions: cited from earlier work
AAR [2] = conditions: ITC
From the text: To verify this assumption, we measured the binding affinity of K^+ ions with AAR, using ITC method.
AAR to perform all the experiments. The small organic molecule, such as stearoyl-CoA, can be used in high concentration, which is more favorable for either co-crystallization with AAR(-ADO) or soaking with the AAR(-ADO) crystals. In comparison, stearoyl-ACP is an 80-residue protein with a stearoyl chain linked to the 4’-phosphopanthetheine on a Ser residue, while the crystallization of protein-protein complexes (AAR-ACP) is much difficult than that of protein-ligand
(AAR-stearoyl-CoA) complexes.
ACP protein covalently linked with stearic chain (stearoyl-ACP), according to the […]
Considering the similar chemical structure of the acyl part of acyl-ACP and acyl-CoA, and the time-consuming experimental processes for obtaining the stearoyl-ACP protein and […]
In our originally submitted manuscript, we supposed that Mg2+ ion binds with AAR near its active site, but we […]
performed ITC experiment to confirm whether Mg2+ ions bind with AAR.
4. The authors assumed that Mg2+ and K+ ions bind to AAR in the crystals. However,
Therefore, it is required to confirm that Mg2+ and/or K+ really bind to AAR using […]
We have now performed the ITC

[3] = molecular target: T2, acyl-ACP reductase from Synechococcus elongatus PCC 7942, C294S mutant (Synechococcus elongatus PCC 7942, UniProt Q54765 1-341, C294S); experiment: crystal structure; AAR incubated with stearoyl-CoA (1:3), then with ADO (1:1), gel filtration; crystals in 0.1 M HEPES pH 7.5, 20% PEG8000; NADPH form by soaking; conditions: both partners purified
T2 construct: acyl-ACP reductase (AAR), Synechococcus elongatus PCC 7942, gene Synpcc7942_1594; complete protein of 341 residues; also called AAR C294S; AAR_(stearoyl-CoA); source: E. coli BL21(DE3), purified (same protocol as wild-type AAR); incubated with stearoyl-CoA before ADO was added; not shown: His6, C-terminal, cleaved
T2 sequence (looked up): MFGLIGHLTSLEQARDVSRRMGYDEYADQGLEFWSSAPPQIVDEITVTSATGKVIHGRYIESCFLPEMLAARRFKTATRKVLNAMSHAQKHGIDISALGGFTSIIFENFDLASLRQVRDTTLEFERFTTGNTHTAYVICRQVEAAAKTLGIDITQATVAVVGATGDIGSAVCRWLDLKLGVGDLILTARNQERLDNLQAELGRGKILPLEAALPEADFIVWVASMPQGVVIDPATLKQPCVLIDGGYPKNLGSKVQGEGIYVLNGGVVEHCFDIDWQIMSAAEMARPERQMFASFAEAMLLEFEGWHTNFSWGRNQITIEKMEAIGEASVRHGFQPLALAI

[4] = molecular target: T3, aldehyde-deformylating oxygenase from Synechococcus elongatus PCC 7942, wild type, His-tag removed (Synechococcus elongatus PCC 7942, UniProt Q54764 1-231); experiment: ITC
T3 chain: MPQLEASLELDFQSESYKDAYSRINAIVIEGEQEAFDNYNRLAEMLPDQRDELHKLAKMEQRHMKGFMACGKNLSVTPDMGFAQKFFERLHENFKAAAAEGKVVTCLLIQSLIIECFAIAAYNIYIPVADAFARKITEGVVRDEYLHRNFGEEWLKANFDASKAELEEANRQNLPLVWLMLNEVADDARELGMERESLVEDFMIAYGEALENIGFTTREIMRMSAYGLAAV

Q: With `CCCCCCCCCCCCCCCCCC(=O)SCCNC(=O)CCNC(=O)[C@H](O)C(C)(C)COP(=O)(O)OP(=O)(O)OC[C@H]1O[C@@H](n2cnc3c(N)ncnc32)[C@H](O)[C@@H]1OP(=O)(O)O` [stearoyl-CoA, stearoyl-coenzyme A] as the molecule, how does the Kd (AAR-wt) read?
A: 2.3 ± 0.38 µM

Q: With `[K+]` [K^+] as the molecule, how does the “stimulation of AAR activity by monovalent metal ions” value (AAR [1]) read?
A: 10–20 fold

Q: And the “binding of metal ion with AAR (in words)” value (AAR [2])?
A: failed to detect signs of AAR binding K^+ ions

Q: What about the “binding of metal ion with AAR (in words)” value (AAR [2]; listed as K+) of the same molecule?
A: do not stably/directly bind AAR

B1: aldehyde-deformylating oxygenase from Synechococcus elongatus PCC 7942, wild type, His-tag removed (enzyme, UniProt Q54764 1-231, looked up)
chain: MPQLEASLELDFQSESYKDAYSRINAIVIEGEQEAFDNYNRLAEMLPDQRDELHKLAKMEQRHMKGFMACGKNLSVTPDMGFAQKFFERLHENFKAAAAEGKVVTCLLIQSLIIECFAIAAYNIYIPVADAFARKITEGVVRDEYLHRNFGEEWLKANFDASKAELEEANRQNLPLVWLMLNEVADDARELGMERESLVEDFMIAYGEALENIGFTTREIMRMSAYGLAAV
notes: aldehyde-deformylating oxygenase (ADO), Synechococcus elongatus PCC 7942, gene Synpcc7942_1593; Constructed and expressed 'similarly as' SeAAR in the modified pET24a (C-terminal TEV site and His6 peptide); ENLYFQ probably stays after cleavage (surmised); also called ADO; SeADO; not shown: His6, C-terminal, cleaved
Q: Does B1 bind [3]?
A: binds

B2: acyl-acyl carrier protein (acyl-ACP) reductase from Synechococcus elongatus PCC 7942, wild type, His-tag removed (enzyme)
chain: MFGLIGHLTSLEQARDVSRRMGYDEYADQGLEFWSSAPPQIVDEITVTSATGKVIHGRYIESCFLPEMLAARRFKTATRKVLNAMSHAQKHGIDISALGGFTSIIFENFDLASLRQVRDTTLEFERFTTGNTHTAYVICRQVEAAAKTLGIDITQATVAVVGATGDIGSAVCRWLDLKLGVGDLILTARNQERLDNLQAELGRGKILPLEAALPEADFIVWVASMPQGVVIDPATLKQPCVLIDGGYPKNLGSKVQGEGIYVLNGGVVEHCFDIDWQIMSAAEMARPERQMFACFAEAMLLEFEGWHTNFSWGRNQITIEKMEAIGEASVRHGFQPLALAI
Q: Which Ka [4] does the source give for B2 here?
A: 496000 M⁻¹
